Measurements reported in US20120295907A1, “INSECTICIDAL COMPOUNDS” (SYNGENTA CROP PROTECTION, LLC, priority 2009, published 2012).

Assays:
Assay type in all cases: in vivo
Spodoptera littoralis = Spodoptera littoralis (Egyptian Cotton Leafworm) cotton leaf disc spray test; settings: foliar, 72 h, 200 ppm spray on cotton leaf discs, L1 larvae, mortality, feeding behavior, growth regulation 3 DAT
Heliothis virescens = Heliothis virescens (Tobacco Budworm) egg test on artificial diet; settings: 96 h, 200 ppm (concentration in well 18 ppm), eggs 0-24 h old on artificial diet, 4 days, egg mortality, larval mortality, growth regulation
Plutella xylostella = Plutella xylostella (Diamond Back Moth) artificial diet MTP test; settings: 144 h, 200 ppm (concentration in well 18 ppm), L2 larvae, 6 days, larval mortality, growth regulation
Diabrotica balteata = Diabrotica balteata (Corn Root Worm) artificial diet MTP test; settings: 120 h, 200 ppm (concentration in well 18 ppm), L2 larvae, 5 days, larval mortality, growth regulation

Structure (SMILES) | pest or weed control at 200 ppm (Spodoptera littoralis) | pest or weed control at 200 ppm (Heliothis virescens) | pest or weed control at 200 ppm (Plutella xylostella) | pest or weed control at 200 ppm (Diabrotica balteata)
CCc1cc(C(F)(C(F)(F)F)C(F)(F)C(F)(F)F)cc(C)c1NC(=O)c1cccc(NC(=O)c2ccc(Cl)s2)c1OC (stereo not shown) [A21] | ≥ 80% | ≥ 80% | ≥ 80% | 
COc1c(NC(=O)c2cc(Cl)ccc2F)cccc1C(=O)Nc1c(Cl)cc(C(F)(C(F)(F)F)C(F)(F)C(F)(F)F)cc1Br (stereo not shown) [B10] | ≥ 80% | ≥ 80% | ≥ 80% | 
COc1c(NC(=O)c2ccco2)cccc1C(=O)Nc1c(Cl)cc(C(F)(C(F)(F)F)C(F)(F)C(F)(F)F)cc1Br (stereo not shown) [B12] | ≥ 80% | ≥ 80% | ≥ 80% | 
COc1c(NC(=O)c2ccccc2OC(F)(F)F)cccc1C(=O)Nc1c(Cl)cc(C(F)(C(F)(F)F)C(F)(F)C(F)(F)F)cc1Br (stereo not shown) [B16] | ≥ 80% |  | ≥ 80% | 
COc1ccccc1C(=O)Nc1cccc(C(=O)Nc2c(Cl)cc(C(F)(C(F)(F)F)C(F)(F)C(F)(F)F)cc2Br)c1OC (stereo not shown) [B17] | ≥ 80% | ≥ 80% |  | 
COc1c(NC(=O)c2cc(C(F)(F)F)ccc2F)cccc1C(=O)Nc1c(Cl)cc(C(F)(C(F)(F)F)C(F)(F)C(F)(F)F)cc1Br (stereo not shown) [B24] | ≥ 80% |  |  | 
COc1c(NC(=O)c2ccc(-n3cccc3)cc2)cccc1C(=O)Nc1c(Cl)cc(C(F)(C(F)(F)F)C(F)(F)C(F)(F)F)cc1Br (stereo not shown) [B30] | ≥ 80% | ≥ 80% |  | ≥ 80%
COc1c(NC(=O)c2ccc(-c3csnn3)cc2)cccc1C(=O)Nc1c(Cl)cc(C(F)(C(F)(F)F)C(F)(F)C(F)(F)F)cc1Br (stereo not shown) [B31] | ≥ 80% | ≥ 80% | ≥ 80% | 
COc1c(NC(=O)c2csnn2)cccc1C(=O)Nc1c(Cl)cc(C(F)(C(F)(F)F)C(F)(F)C(F)(F)F)cc1Br (stereo not shown) [B39] | ≥ 80% | ≥ 80% | ≥ 80% | 
COc1c(NC(=O)c2ccc(-c3ccccn3)s2)cccc1C(=O)Nc1c(Cl)cc(C(F)(C(F)(F)F)C(F)(F)C(F)(F)F)cc1Br (stereo not shown) [B48] | ≥ 80% | ≥ 80% | ≥ 80% | 
COc1c(NC(=O)c2sccc2Br)cccc1C(=O)Nc1c(Cl)cc(C(F)(C(F)(F)F)C(F)(F)C(F)(F)F)cc1Br (stereo not shown) [B57] |  |  | ≥ 80% | 
COc1c(NC(=O)c2cc(Cl)cc(I)c2)cccc1C(=O)Nc1c(Cl)cc(C(F)(C(F)(F)F)C(F)(F)C(F)(F)F)cc1Br (stereo not shown) [B68] | ≥ 80% | ≥ 80% |  | 
COc1c(NC(=O)c2cc(Cl)cc(C(F)(F)F)c2)cccc1C(=O)Nc1c(Cl)cc(C(F)(C(F)(F)F)C(F)(F)C(F)(F)F)cc1Br (stereo not shown) [B70] | ≥ 80% | ≥ 80% |  | 
COc1c(NC(=O)c2ncccn2)cccc1C(=O)Nc1c(Cl)cc(C(F)(C(F)(F)F)C(F)(F)C(F)(F)F)cc1Br (stereo not shown) [B71] | ≥ 80% |  | ≥ 80% | 
COc1c(NC(=O)c2ccc(F)c([N+](=O)[O-])c2)cccc1C(=O)Nc1c(Cl)cc(C(F)(C(F)(F)F)C(F)(F)C(F)(F)F)cc1Br (stereo not shown) [B77] | ≥ 80% | ≥ 80% | ≥ 80% | 
COc1c(NC(=O)c2sccc2C)cccc1C(=O)Nc1c(Cl)cc(C(F)(C(F)(F)F)C(F)(F)C(F)(F)F)cc1Br (stereo not shown) [B88] | ≥ 80% | ≥ 80% | ≥ 80% | 
COc1c(NC(=O)c2ocnc2C)cccc1C(=O)Nc1c(Cl)cc(C(F)(C(F)(F)F)C(F)(F)C(F)(F)F)cc1Br (stereo not shown) [B94] | ≥ 80% | ≥ 80% | ≥ 80% | 
COCc1nc(C)c(C(=O)Nc2cccc(C(=O)Nc3c(Cl)cc(C(F)(C(F)(F)F)C(F)(F)C(F)(F)F)cc3Br)c2OC)s1 (stereo not shown) [B95] | ≥ 80% | ≥ 80% | ≥ 80% | 
COc1c(NC(=O)c2cc([N+](=O)[O-])c(Cl)cc2F)cccc1C(=O)Nc1c(Cl)cc(C(F)(C(F)(F)F)C(F)(F)C(F)(F)F)cc1Br (stereo not shown) [B102] | ≥ 80% | ≥ 80% | ≥ 80% | 
COc1c(NC(=O)c2sc(Cl)nc2C)cccc1C(=O)Nc1c(Cl)cc(C(F)(C(F)(F)F)C(F)(F)C(F)(F)F)cc1Br (stereo not shown) [B105] | ≥ 80% |  | ≥ 80% | 
COc1c(NC(=O)c2ccc(S(C)(=O)=O)c(OC)c2Cl)cccc1C(=O)Nc1c(Cl)cc(C(F)(C(F)(F)F)C(F)(F)C(F)(F)F)cc1Br (stereo not shown) [B114] | ≥ 80% | ≥ 80% | ≥ 80% | 
COc1c(NC(=O)c2ncc(C(F)(F)F)cc2Cl)cccc1C(=O)Nc1c(Cl)cc(C(F)(C(F)(F)F)C(F)(F)C(F)(F)F)cc1Br (stereo not shown) [B141] | ≥ 80% | ≥ 80% | ≥ 80% | 
COc1c(NC(=O)c2c(C)nn(C)c2Cl)cccc1C(=O)Nc1c(Cl)cc(C(F)(C(F)(F)F)C(F)(F)C(F)(F)F)cc1Br (stereo not shown) [B142] | ≥ 80% |  |  | 

Structure (SMILES) | pest or weed control at 200 ppm (Spodoptera littoralis) | pest or weed control at 200 ppm (Heliothis virescens) | pest or weed control at 200 ppm (Plutella xylostella) | pest or weed control at 200 ppm (Diabrotica balteata)
COc1c(NC(=O)c2csc(Cl)c2OC)cccc1C(=O)Nc1c(Cl)cc(C(F)(C(F)(F)F)C(F)(F)C(F)(F)F)cc1Br (stereo not shown) [B147] | ≥ 80% |  |  | 
COc1c(NC(=O)c2cc([N+](=O)[O-])ccc2F)cccc1C(=O)Nc1c(Cl)cc(C(F)(C(F)(F)F)C(F)(F)C(F)(F)F)cc1Br (stereo not shown) [B148] | ≥ 80% | ≥ 80% | ≥ 80% | 
COc1c(NC(=O)c2cn(C)nc2C(F)(F)F)cccc1C(=O)Nc1c(Cl)cc(C(F)(C(F)(F)F)C(F)(F)C(F)(F)F)cc1Br (stereo not shown) [B152] | ≥ 80% | ≥ 80% | ≥ 80% | 
COc1c(NC(=O)c2c(C)noc2C)cccc1C(=O)Nc1c(Cl)cc(C(F)(C(F)(F)F)C(F)(F)C(F)(F)F)cc1Br (stereo not shown) [B157] | ≥ 80% | ≥ 80% |  | 
COc1c(NC(=O)c2cc(Cl)cc(Cl)c2O)cccc1C(=O)Nc1c(Cl)cc(C(F)(C(F)(F)F)C(F)(F)C(F)(F)F)cc1Br (stereo not shown) [B160] |  |  | ≥ 80% | 
COc1cccc(OC)c1C(=O)Nc1cccc(C(=O)Nc2c(Cl)cc(C(F)(C(F)(F)F)C(F)(F)C(F)(F)F)cc2Br)c1OC (stereo not shown) [B164] |  |  | ≥ 80% | 
COc1c(NC(=O)c2ccc([N+](=O)[O-])c(O)c2)cccc1C(=O)Nc1c(Cl)cc(C(F)(C(F)(F)F)C(F)(F)C(F)(F)F)cc1Br (stereo not shown) [B181] |  |  |  | ≥ 80%
COc1c(NC(=O)c2ccc(C)cc2Cl)cccc1C(=O)Nc1c(Cl)cc(C(F)(C(F)(F)F)C(F)(F)C(F)(F)F)cc1Br (stereo not shown) [B182] | ≥ 80% | ≥ 80% | ≥ 80% | 
COc1c(NC(=O)c2cc(Cl)sc2Cl)cccc1C(=O)Nc1c(Cl)cc(C(F)(C(F)(F)F)C(F)(F)C(F)(F)F)cc1Br (stereo not shown) [B186] | ≥ 80% |  |  | 
COc1c(NC(=O)c2ncc(Br)cn2)cccc1C(=O)Nc1c(Cl)cc(C(F)(C(F)(F)F)C(F)(F)C(F)(F)F)cc1Br (stereo not shown) [B187] | ≥ 80% |  | ≥ 80% | ≥ 80%
COc1c(NC(=O)c2ncccc2C(F)(F)F)cccc1C(=O)Nc1c(Cl)cc(C(F)(C(F)(F)F)C(F)(F)C(F)(F)F)cc1Br (stereo not shown) [B188] | ≥ 80% | ≥ 80% |  | 
COc1c(NC(=O)c2cc(Cl)ccc2F)cccc1C(=O)Nc1c(Cl)cc(C(F)(C(F)(F)F)C(F)(F)C(F)(F)F)cc1Cl (stereo not shown) [C10] | ≥ 80% | ≥ 80% |  | ≥ 80%
COc1c(NC(=O)c2ccccc2OC(F)(F)F)cccc1C(=O)Nc1c(Cl)cc(C(F)(C(F)(F)F)C(F)(F)C(F)(F)F)cc1Cl (stereo not shown) [C16] |  | ≥ 80% |  | 
COc1ccccc1C(=O)Nc1cccc(C(=O)Nc2c(Cl)cc(C(F)(C(F)(F)F)C(F)(F)C(F)(F)F)cc2Cl)c1OC (stereo not shown) [C17] |  | ≥ 80% |  | 
COc1c(NC(=O)c2ccco2)cccc1C(=O)Nc1c(Cl)cc(C(F)(C(F)(F)F)C(F)(F)F)cc1Cl [E10] | ≥ 80% | ≥ 80% | ≥ 80% | 
COc1c(NC(=O)c2ccccc2OC(F)(F)F)cccc1C(=O)Nc1c(Cl)cc(C(F)(C(F)(F)F)C(F)(F)F)cc1Cl [E14] | ≥ 80% | ≥ 80% | ≥ 80% | 
COc1ccccc1C(=O)Nc1cccc(C(=O)Nc2c(Cl)cc(C(F)(C(F)(F)F)C(F)(F)F)cc2Cl)c1OC [E15] | ≥ 80% | ≥ 80% | ≥ 80% | 
COc1c(NC(=O)c2ccccc2C)cccc1C(=O)Nc1c(C)cc(C(F)(C(F)(F)F)C(F)(F)C(F)(F)F)cc1C (stereo not shown) [F2] | ≥ 80% | ≥ 80% | ≥ 80% | 
COc1c(NC(=O)c2ccco2)cccc1C(=O)Nc1c(C)cc(C(F)(C(F)(F)F)C(F)(F)C(F)(F)F)cc1C (stereo not shown) [F4] | ≥ 80% | ≥ 80% | ≥ 80% | 
COc1c(NC(=O)c2cccc(C)c2C)cccc1C(=O)Nc1c(C)cc(C(F)(C(F)(F)F)C(F)(F)C(F)(F)F)cc1C (stereo not shown) [F11] |  |  | ≥ 80% | 
COc1c(NC(=O)c2ccc(Cl)cc2F)cccc1C(=O)Nc1c(C)cc(C(F)(C(F)(F)F)C(F)(F)C(F)(F)F)cc1C (stereo not shown) [F13] | ≥ 80% | ≥ 80% |  | 
CCc1cc(C(F)(C(F)(F)F)C(F)(F)F)cc(C)c1NC(=O)c1cccc(NC(=O)c2ccc(C#N)cc2Cl)c1OC [J1] |  |  | ≥ 80% | ≥ 80%
